From PMC2222763 (The Journal of General Physiology, 1998)
Values joined by “and” are separate entries in the source; they are usually repeats but may differ in a detail not shown here. Identical values can stand only once. Like-named read-outs stand apart in the source and are kept apart here.

How the values were obtained:
[1] = system: large-conductance Ca^2+-activated K^+ channels (BK channels); assay: Slow blockade: long shut events and burst durations in single BK channels; type: biochemical, goldfish, Carassius auratus
[2] = system: BK channels; conditions: cited from earlier work
[3] = system: large-conductance Ca^2+-activated K^+ channels (BK channels); type: biochemical, goldfish, Carassius auratus; conditions: voltage steps −50 to +50 mV; 20 μM Sr^2+ or 5 μM Ca^2+
[4] = system: large-conductance Ca^2+-activated K^+ channels (BK channels); assay: Steady state activation of BK channels; type: biochemical, goldfish, Carassius auratus; conditions: for Po: 20 μM [Sr^2+]i or 5 μM [Ca^2+]i (equipotent); for decrease in V0.5 produced by a 10-fold increase in concentration: slopes of concentration–V0.5 plots
[5] = system: large-conductance Ca^2+-activated K^+ channels (BK channels); type: biochemical, goldfish, Carassius auratus
[6] = system: BK channels; conditions: T-tubule membrane in lipid bilayers; ref Oberhauser et al., 1988; cited from earlier work
[7] = system: BK channels; conditions: cultured neurons from rat hypothalamus and brain stem; ref Kang et al., 1994; cited from earlier work

In the case of `[Ba+2]` [Ba^2+, barium ion], the “time constant of long shut events, second exponential” value ([1]; 20 μM [Ba^2+]i, 100 μM [Ca^2+]i, 50 mV, area 162 events) is listed as 359 ms, the “time constant of long shut events, first exponential” value ([1]; 20 μM [Ba^2+]i, 100 μM [Ca^2+]i, 50 mV, area 372 events) is listed as 18.8 ms and the “depth of the binding site within the membrane voltage field (Ba^2+ blockade)” value (shortened to “depth”) ([2]; ref Benham et al., 1985) is listed as 0.96. The “depth” value ([2]; ref Diaz et al., 1996) was 0.92, the “depth” value ([2]; ref Neyton and Miller, 1988) was 0.5–0.7 and the “depth” value ([2]; ref Vergara and Latorre, 1983) was 0.8.

In the case of `[Ca+2].[Cl-].[Cl-]` [Ca^2+], the activation time constant [3] is reported as 1.14 ms, the deactivation time constant [3] is reported as 0.54 ms and the “Hill coefficient for activation (slope of Hill plot)” value ([4]; 50 mV) is reported as 2.7. The Po ([4]; 50 mV) was 0.315, the “decrease in V0.5 produced by a 10-fold increase in concentration” value ([4]; eight membrane patches) was ~35 mV and the single-channel current amplitude ([5]; 5 μM [Ca^2+]i, 50 mV (original amplitude)) was 13.2 pA. For the same compound, the single-channel current amplitude ([5]; 5 μM [Ca^2+]i, 100 mV (original amplitude)) was 26.1 pA, the “potency of fast blockade relative to Mg^2+ or Sr^2+” value [6] was > 10 × and the “potency in reducing the outward current amplitude relative to internal Mg^2+” value [7] was ~1,000 ×.

With `[Sr+2]` [Sr^2+, Strontium] the activation time constant [3] was 1.22 ms, the deactivation time constant [3] was 0.61 ms and the “half-activation voltage V0.5 (Boltzmann distribution)” value ([4]; 5 μM [Sr^2+]i) was 72 mV. The “n (equivalent number of gating charges, Boltzmann distribution)” value ([4]; 5 μM [Sr^2+]i) was 1.6, the “half-activation voltage V0.5 (Boltzmann distribution)” value ([4]; 20 μM [Sr^2+]i) was 39 mV and the “n (equivalent number of gating charges, Boltzmann distribution)” value ([4]; 20 μM [Sr^2+]i) was 1.4. The “half-activation voltage V0.5 (Boltzmann distribution)” value ([4]; 200 μM [Sr^2+]i) was 1 mV, the “n (equivalent number of gating charges, Boltzmann distribution)” value ([4]; 200 μM [Sr^2+]i) was 1.3 and the “half-activation voltage V0.5 (Boltzmann distribution)” value ([4]; 1,000 μM [Sr^2+]i) was −22 mV. For the same compound, the “n (equivalent number of gating charges, Boltzmann distribution)” value ([4]; 1,000 μM [Sr^2+]i) was 1.3, the “Hill coefficient for activation (slope of Hill plot)” value ([4]; 2nd of +50 to −50 mV series (40 mV)) was 1.3 and the “Hill coefficient for activation (slope of Hill plot)” value ([4]; 3rd of +50 to −50 mV series (30 mV)) was 1.2. The “Hill coefficient for activation (slope of Hill plot)” value ([4]; 4th of +50 to −50 mV series (20 mV)) was 1.0, the “Hill coefficient for activation (slope of Hill plot)” value ([4]; 5th of +50 to −50 mV series (10 mV)) was 0.83 and the “Hill coefficient for activation (slope of Hill plot)” value ([4]; 6th of +50 to −50 mV series (−10 mV)) was 0.69. For the same compound, the “Hill coefficient for activation (slope of Hill plot)” value ([4]; 7th of +50 to −50 mV series (−20 mV)) was 0.70, the “Hill coefficient for activation (slope of Hill plot)” value ([4]; 8th of +50 to −50 mV series (−30 mV)) was 0.79 and the “Hill coefficient for activation (slope of Hill plot)” value ([4]; 9th of +50 to −50 mV series (−40 mV)) was 0.78. For the same compound, the “Hill coefficient for activation (slope of Hill plot)” value ([4]; 10th of +50 to −50 mV series (−50 mV)) was 0.72, the “Hill coefficient for activation (slope of Hill plot)” value ([4]; 50 mV) was 1.6 and the Po ([4]; 50 mV) was 0.309. The “Hill coefficient for activation” value ([4]; between −10 and −50 mV) was ~0.7, the “potency in activating BK channels relative to Ca^2+” value ([4]; from concentration–V0.5 plots, eight membrane patches) was “approximately one-fourth” and the “decrease in V0.5 produced by a 10-fold increase in concentration” value ([4]; eight membrane patches) was ~25 mV. For the same compound, the single-channel current amplitude ([5]; 0.1 mM [Sr^2+]i, 50 mV) was 12.3 pA, the single-channel current amplitude ([5]; 0.1 mM [Sr^2+]i, 100 mV) was 23.7 pA and the single-channel current amplitude ([5]; 1.0 mM [Sr^2+]i, 50 mV) was 10.9 pA. The single-channel current amplitude ([5]; 1.0 mM [Sr^2+]i, 100 mV) was 19.7 pA, the single-channel current amplitude ([5]; 10 mM [Sr^2+]i, 50 mV) was 8.0 pA and the single-channel current amplitude ([5]; 10 mM [Sr^2+]i, 100 mV) was 9.8 pA. For the same compound, the “Hill coefficient for amplitude reduction (slope of Hill plot)” value ([5]; 1st of 100–30 mV series (100 mV)) was 0.75, the “Hill coefficient for amplitude reduction (slope of Hill plot)” value ([5]; 2nd of 100–30 mV series (90 mV)) was 0.73 and the “Hill coefficient for amplitude reduction (slope of Hill plot)” value ([5]; 3rd of 100–30 mV series (80 mV)) was 0.75. The “Hill coefficient for amplitude reduction (slope of Hill plot)” value ([5]; 4th of 100–30 mV series (70 mV)) was 0.70, the “Hill coefficient for amplitude reduction (slope of Hill plot)” value ([5]; 5th of 100–30 mV series (60 mV)) was 0.66 and the “Hill coefficient for amplitude reduction (slope of Hill plot)” value ([5]; 6th of 100–30 mV series (50 mV)) was 0.62. The “Hill coefficient for amplitude reduction (slope of Hill plot)” value ([5]; 7th of 100–30 mV series (40 mV)) was 0.67, the “Hill coefficient for amplitude reduction (slope of Hill plot)” value ([5]; 8th of 100–30 mV series (30 mV)) was 0.64 and the “Hill coefficients for amplitude reduction” value ([5]; all voltages (30–100 mV), [Sr^2+]i 0.5 mM or higher) was 0.62–0.75. For the same compound, the “internal concentration producing fast and slow blockade” value ([5]; concentration and voltage dependent) was > 100 µM, the “permeation of the channel” value ([5]; no shift in the reversal voltage in the current–voltage relation) was “could scarcely permeate the channel” and the “duration of long shut events (slow blockade)” value [1] was 10 to 200 ms. For the same compound, the “probability for the open state during bursts (P[open|burst])” value ([1]; 500 μM [Sr^2+]i at 30 mV) was 0.86, the “time constant of burst durations (τb)” value ([1]; 0.5 mM [Sr^2+]i, 30 mV) was 1,310 ms and the “time constant of long shut events (τl−s)” value ([1]; 0.5 mM [Sr^2+]i, 30 mV) was 75.1 ms. The “time constant of burst durations (τb)” value ([1]; 0.5 mM [Sr^2+]i, 50 mV) was 631 ms, the “time constant of long shut events (τl−s)” value ([1]; 0.5 mM [Sr^2+]i, 50 mV) was 44.7 ms and the “time constant of burst durations (τb)” value ([1]; 2 mM [Sr^2+]i, 30 mV) was 520 ms. For the same compound, the “time constant of long shut events (τl−s)” value ([1]; 2 mM [Sr^2+]i, 30 mV) was 41.3 ms, the “time constant of burst durations (τb)” value ([1]; 2 mM [Sr^2+]i, 50 mV) was 195 ms and the “time constant of long shut events (τl−s)” value ([1]; 2 mM [Sr^2+]i, 50 mV) was 41.0 ms. For the same compound, the “time constant of burst durations (τb)” value ([1]; 10 mM Sr^2+, 50 mV, threshold time for long shut events 3.32 ms) was 51.0 ms, the “time constant of burst durations (τb)” value ([1]; 10 mM Sr^2+, 50 mV, threshold time for long shut events 15.8 ms) was 94.0 ms and the “probability for the open state during bursts (P[open|burst])” value ([1]; 10 mM [Sr^2+]i at 50 mV) was 0.94. The “time constant of burst durations (τb)” value ([1]; 10 mM [Sr^2+]i, 30 mV) was 163 ms, the “time constant of long shut events (τl−s)” value ([1]; 10 mM [Sr^2+]i, 30 mV) was 44.6 ms and the “time constant of long shut events (τl−s)” value ([1]; 10 mM [Sr^2+]i, 50 mV) was 34.4 ms. The “time constant of burst durations (τb)” value ([1]; 10 mM [Sr^2+]i, 50 mV (threshold time for long shut events 6.64 ms)) was 63.2 ms, the τb ([1]; 10 mV, square patch (Fig. 9 C)) was 425 ms and the “slope of log(n 1−s/n s) versus log([Sr^2+]i)” value ([1]; 10 mV, triangle patch) was 0.95. For the same compound, the “slope of log(τb) versus log([Sr^2+]i)” value ([1]; 10 mV, triangle patch) was −1.23, the “slope of log(τl−s) versus log([Sr^2+]i)” value ([1]; 10 mV, triangle patch) was −0.15 and the “slope of log(n 1−s/n s) versus log([Sr^2+]i)” value ([1]; 30 mV, circle patch) was 0.71. The “slope of log(τb) versus log([Sr^2+]i)” value ([1]; 30 mV, circle patch) was −0.74, the “slope of log(τl−s) versus log([Sr^2+]i)” value ([1]; 30 mV, circle patch) was −0.094 and the “slope of log(n 1−s/n s) versus log([Sr^2+]i)” value ([1]; 30 mV, triangle patch) was 1.08. The “slope of log(τb) versus log([Sr^2+]i)” value ([1]; 30 mV, triangle patch) was −0.78, the “slope of log(τl−s) versus log([Sr^2+]i)” value ([1]; 30 mV, triangle patch) was 0.01 and the “slope of log(n 1−s/n s) versus log([Sr^2+]i)” value ([1]; 50 mV, circle patch) was 0.92. The “slope of log(τb) versus log([Sr^2+]i)” value ([1]; 50 mV, circle patch) was −0.74, the “slope of log(τl−s) versus log([Sr^2+]i)” value ([1]; 50 mV, circle patch) was −0.11 and the “zd for slow blockade (Woodhull equation, Eq. 7)” value ([1]; one value per experiment) was 0.95 and 1.84. The “slope of log(n 1−s/n s) versus log([Sr^2+]i)” value ([1]; square patch) was 1.18, the “slope of log(τb) versus log([Sr^2+]i)” value ([1]; square patch) was −1.00 and the “slope of log(τl−s) versus log([Sr^2+]i)” value ([1]; square patch) was −0.05. The “slopes of log(τb) versus log([Sr^2+]i) fitting lines” value ([1]; three experiments) was −0.74 to −1.23 and the “slopes of log(τl−s) versus log([Sr^2+]i) fitting lines” value ([1]; three experiments) was −0.15–0.01.
